# Test results taken from US6350859B1, “Class BI and CI scavenger receptors” (Massachusetts Institute of Technology, priority 1994, dated 2002).
# Tests used:
# dSR-CI = assay: Competitive inhibition of 125I-AcLDL degradation activity by CHO[dSR-CI]-2.6a cells; format: cell-based, Drosophila melanogaster
# Description: (§1) Scavenger receptor activities at 37° C. were measured by ligand binding, uptake and degradation assays as described by Krieger, 1983; Freeman et al., 1991). Although binding and uptake at 37° C. were determined separately using dextran-sulfate to free surface bound lipoproteins from the cells as described for LDL receptor assays by Goldstein et al., 1983; Basu et al., 1983 Science 219, 871-873), this method for separating bound from internalized ligand for ^125I-AcLDL and scavenger receptors has not been independently validated. Accordingly, the values for binding and uptake were combined and are presented as binding plus uptake observed after a 5 hour incubation and are expressed as ng of ^125I-AcLDL protein per 5 hr per mg cell protein. Degradation activity is expressed as ng of ^125I-AcLDL protein degraded in 5 hours per mg of cell protein. The specific, high affinity values presented represent the differences between the results obtained in the presence (single determinations) and absence (duplicate determinations) of excess unlabeled competing ligand (75 to 200 μg/ml of M-BSA). Cell surface 4° C. binding was assayed using either method A or method B as indicated. In method A, cells were prechilled on ice for 15 min, re-fed with ^125I-AcLDL in ice-cold medium B supplemented with 10% (v/v) fetal bovine serum, with or without 75-200 μg/ml unlabeled M-BSA, and incubated 2 hr at 4° C. on a shaker. Cells were then washed rapidly three times with Tris wash buffer (50 mM Tris-HCl, 0.15M NaCl, pH 7.4) containing 2 mg/ml BSA, followed by two 5 min washes, and two rapid washes with Tris wash buffer without BSA. The cells were solubilized in 1 ml of 0.1N NaOH for 20 min at room temperature on a shaker, 30 μl were removed for protein determination, and the radioactivity in the remainder was determined using a LKB gamma counter. Method B differed from method A in that the cells were prechilled for 45 minutes, the medium contained 10 mM HEPES and 5% (v/v) human lipoprotein-deficient serum rather than fetal bovine serum, and the cell-associated radioactivity released by treatment with dextran sulfate was measured as described by Krieger, 1983; Freeman et al., 1991).
# Competitive binding of AcLDL was performed to more accurately define the specificity of the AcLDL binding.
# Var-261 cells [1] = assay: 125I-AcLDL binding at 4° C. to Var-261 cells, competition; parameters: species or system Chinese hamster; settings: 125I-AcLDL 5 μg/ml, FIG. 3B: M-BSA 10, poly G 500, fucoidin 200, carrageenan 200, LDL 500 μg/ml
# Description: as §1
# (§2) To measure binding of AcLDL, on day 1, COS cells were transfected with the expression vector for the hamster scavenger receptor type BI (haSR-BI). On day 2 the transfected COS cells were plated in 6-well dishes (1×10^6 cells/well in medium A plus 1 mM sodium butyrate). […] On day 3 the binding of ^125I-AcLDL (5 μg/ml) at 4° C. in the absence or presence of the indicated competitors was measured using Method A. The values shown in the Figures represent the averages of duplicate determinations. […]
# haSR-BI = target: T1, haSR-BI (Cricetulus griseus, UniProt Q60417); assay: 125I-AcLDL binding at 4° C. to haSR-BI in transfected COS or ldlA cells; parameters: species or system hamster; settings: ldlA[haSR-BI] cells, 125I-AcLDL 5 μg/ml, FIG. 3B: M-BSA 10, poly G 500, fucoidin 200, carrageenan 200, LDL 500 μg/ml
# T1 construct: expressed in transfected cells
# T1 sequence (Q60417 1-509): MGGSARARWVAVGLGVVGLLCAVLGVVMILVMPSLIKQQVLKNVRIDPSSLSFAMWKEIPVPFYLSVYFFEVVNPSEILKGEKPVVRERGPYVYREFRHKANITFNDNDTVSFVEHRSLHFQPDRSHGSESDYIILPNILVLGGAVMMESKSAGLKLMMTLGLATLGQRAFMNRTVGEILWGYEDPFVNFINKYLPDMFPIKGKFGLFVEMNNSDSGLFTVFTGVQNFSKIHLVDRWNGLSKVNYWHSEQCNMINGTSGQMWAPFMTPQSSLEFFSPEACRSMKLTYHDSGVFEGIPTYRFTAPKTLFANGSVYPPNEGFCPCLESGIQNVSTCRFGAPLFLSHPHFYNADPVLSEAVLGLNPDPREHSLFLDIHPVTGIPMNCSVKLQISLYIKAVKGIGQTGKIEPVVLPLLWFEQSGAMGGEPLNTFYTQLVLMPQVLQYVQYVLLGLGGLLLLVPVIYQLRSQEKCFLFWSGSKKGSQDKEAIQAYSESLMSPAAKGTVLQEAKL
# Description: as §1
# HDL and VLDL binding to SR-BI and CD36 were conducted as described for LDL and modified LDL.
# as §2
# CD36 = target: T2, CD36 (Homo sapiens, UniProt P16671); assay: 125I-AcLDL degradation at 37° C. in COS cells transfected with CD36, competition; format: cell-based; settings: 5 hr, FIG. 4B: M-BSA 4, AcLDL 500, fucoidin 200, poly I 500, poly G 500, ReLPS 250 μg/ml
# T2 construct: expressed in transfected cells; host or cells: COS cells (transient)
# T2 sequence (P16671 whole entry): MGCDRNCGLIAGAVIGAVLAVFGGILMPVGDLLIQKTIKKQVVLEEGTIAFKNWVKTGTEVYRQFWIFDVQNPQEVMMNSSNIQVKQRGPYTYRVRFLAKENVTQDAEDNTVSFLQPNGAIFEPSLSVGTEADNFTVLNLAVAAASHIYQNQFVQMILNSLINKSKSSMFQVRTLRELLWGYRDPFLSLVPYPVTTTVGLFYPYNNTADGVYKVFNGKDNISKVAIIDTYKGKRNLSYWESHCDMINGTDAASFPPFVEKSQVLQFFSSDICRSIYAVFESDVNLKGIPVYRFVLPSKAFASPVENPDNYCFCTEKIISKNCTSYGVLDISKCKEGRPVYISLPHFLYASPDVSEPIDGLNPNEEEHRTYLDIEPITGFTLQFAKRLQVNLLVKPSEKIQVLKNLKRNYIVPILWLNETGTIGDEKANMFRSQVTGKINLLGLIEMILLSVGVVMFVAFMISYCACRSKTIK
# Description: as §1
# COS cells were transfected on day 1 with a plasmid encoding CD36. On day 2 the transfected cells were set in 6-well dishes at 1×10^6 cells/well in medium A plus 1 mM sodium butyrate. On day 3, 125I-AcLDL binding at 4° C. was measured. […] On day 3, degradation of ^125I-AcLDL (5 μg/ml) was measured after a 5 hr incubation at 37° C. in the absence (duplicate determinations) or presence (duplicate determinations) of the indicated competitors. […]
# Var-261 cells [2] = assay: 125I-AcLDL degradation and binding plus uptake at 37° C. in Var-261 cells; format: cell-based, Chinese hamster; settings: for competition for 125I-AcLDL degradation: 125I-AcLDL 5 μg/ml, 5 hr
# [3] = target: T3, murine type II macrophage scavenger receptor (mSR-AII) (Mus musculus, UniProt P30204); assay: 125I-AcLDL degradation at 37° C. in COS cells expressing murine scavenger receptor type II; format: cell-based; settings: for competition for 125I-AcLDL degradation: COS[mSR-AII] cells, 125I-AcLDL 5 μg/ml, 5 hr, 37° C.
# T3 construct: expressed in transfected cells; host or cells: COS cells (transient)
# T3 sequence (P30204 1-354 isoform P30204-2): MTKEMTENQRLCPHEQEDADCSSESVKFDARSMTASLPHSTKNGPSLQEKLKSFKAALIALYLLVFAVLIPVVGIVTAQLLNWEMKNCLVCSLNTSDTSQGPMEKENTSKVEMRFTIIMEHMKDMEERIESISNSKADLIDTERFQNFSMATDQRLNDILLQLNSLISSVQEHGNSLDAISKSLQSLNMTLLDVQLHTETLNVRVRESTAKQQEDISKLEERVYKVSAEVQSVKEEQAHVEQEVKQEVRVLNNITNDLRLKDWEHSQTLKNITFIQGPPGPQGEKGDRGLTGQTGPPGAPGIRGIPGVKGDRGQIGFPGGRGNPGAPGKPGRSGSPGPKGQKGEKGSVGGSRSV
# Description: as §1, with “In method A, cells were prechilled on ice for 15 min, re-fed with ^125I-AcLDL in ice-cold medium B supplemented with 10% (v/v) fetal bovine serum, with or without 75-200 μg/ml unlabeled M-BSA, and incubated 2 hr at 4° C. on a shaker. Cells were then washed rapidly three times with Tris wash buffer (50 mM Tris-HCl, 0.15M NaCl, pH 7.4) containing 2 mg/ml BSA, followed by two 5 min washes, and two rapid washes with Tris wash buffer without BSA.” left out
# COS cells were transfected on day 1 with murine scavenger receptor type II. […] On day 3, ^125I-AcLDL (5 μg/ml) in medium B plus 10% fetal bovine serum was added to the cells and degradation was measured after a 5 hr incubation at 37° C. in the absence (duplicate determinations) or presence (duplicate determinations) of the indicated amounts of polyanions. […]
Compound,inhibition of 125I-AcLDL binding (Var-261 cells [1]),inhibition of 125I-AcLDL binding (haSR-BI),"inhibition of receptor activity, 125I-AcLDL degradation (CD36)",competition for 125I-AcLDL degradation (Var-261 cells [2]; 37° C.),Degradation (% No Competitor) (dSR-CI; competitor 400 μg/ml),further results
dextran sulfate,–,–,–,–,–,Degradation (% No Competitor) (dSR-CI; competitor concentration not given): 4.2 % No Competitor
carrageenan,competitors,not inhibited,–,–,–,–
fucoidin,competitors,not inhibited,not,effective competitors,–,competition for 125I-AcLDL degradation [3]: effective competitors
Dextran,–,–,–,–,100,–
polyriboinosinic acid [poly I],–,–,not,–,2.7,"inhibition of 125I-AcLDL degradation (Var-261 cells [2]; competitor at 400 μg/ml): 34%; inhibition of 125I-AcLDL degradation ([3]; class A scavenger receptors, competitor at 2.5 μg/ml): greater than 50%"
Polyriboguanylic acid [poly G],competitors,not inhibited,not,effective competitors,–,competition for 125I-AcLDL degradation [3]: effective competitors
Poly D-glutamic acid,–,–,–,–,34,–
CCN(CC)CCCC(C)Nc1ccnc2cc(Cl)ccc12 (centres unmarked) [chloroquine],–,–,–,–,–,effect on 125I-AcLDL binding plus uptake (Var-261 cells [2]; 37° C.): not; effect on 125I-AcLDL degradation (Var-261 cells [2]; 37° C.): inhibited
M-BSA: maleylated BSA,inhibited,inhibited,inhibited,inhibited,6.7,–
